Biological target: T1, human S1P1 receptor (Homo sapiens, UniProt P21453)
T1 construct: expressed in transfected cells; membranes used
Test: GTP γ35S binding assay for S1P1 activity
Type: biochemical
Details: membranes of cells stably expressing the S1P1 receptor, test concentrations 0.08 to 5,000 nM
Procedure: Compounds were synthesized and tested for S1P1 activity using the GTP γ^35S binding assay. These compounds may be assessed for their ability to activate or block activation of the human S1P1 receptor in cells stably expressing the S1P1 receptor.
GTP γ^35S binding was measured in the medium containing (mM) HEPES 25, pH 7.4, MgCl2 10, NaCl 100, dithitothreitol 0.5, digitonin 0.003%, 0.2 nM GTP γ^35S, and 5 μg membrane protein in a volume of 150 μl. Test compounds were included in the concentration range from 0.08 to 5,000 nM unless indicated otherwise. Membranes were incubated with 100 μM 5′-adenylylimmidodiphosphate for 30 min, and subsequently with 10 μM GDP for 10 min on ice. Drug solutions and membrane were mixed, and then reactions were initiated by adding GTP γ^35S and continued for 30 min at 25° C. Reaction mixtures were filtered over Whatman GF/B filters under vacuum, and washed three times with 3 mL of ice-cold buffer (HEPES 25, pH7.4, MgCl2 10 and NaCl 100). Filters were dried and mixed with scintillant, and counted for ^35S activity using a β-counter. Agonist-induced GTP γ^35S binding was obtained by subtracting that in the absence of agonist. Binding data were analyzed using a non-linear regression method. In case of antagonist assay, the reaction mixture contained 10 nM S1P in the presence of test antagonist at concentrations ranging from 0.08 to 5000 nM.

T1 sequence (P21453 whole entry): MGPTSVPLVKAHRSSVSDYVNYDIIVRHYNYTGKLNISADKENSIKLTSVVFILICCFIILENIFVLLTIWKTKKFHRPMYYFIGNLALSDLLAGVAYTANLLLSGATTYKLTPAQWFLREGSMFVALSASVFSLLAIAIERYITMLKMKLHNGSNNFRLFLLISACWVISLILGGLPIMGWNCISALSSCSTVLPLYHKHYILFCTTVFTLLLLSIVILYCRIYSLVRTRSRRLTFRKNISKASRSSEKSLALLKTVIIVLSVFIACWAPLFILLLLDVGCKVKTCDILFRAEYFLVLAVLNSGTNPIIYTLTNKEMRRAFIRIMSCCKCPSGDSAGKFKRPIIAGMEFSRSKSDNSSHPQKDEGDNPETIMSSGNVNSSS

SMILES	EC50
CCCc1cccc(OC(c2cccc(Cl)c2)c2nc(-c3ccc(CNCCC(=O)O)cc3)no2)c1 (centres unmarked) [3-[(4-{5-[(3-chlorophenyl)(3-propylphenoxy)methyl]-1,2,4-oxadiazol-3-yl}benzyl)amino]propanoic acid]	2.1 µM
O=C(O)CCNCc1ccc(-c2noc(C(Oc3cccc(Cl)c3)c3ccccc3Cl)n2)cc1 (centres unmarked) [Compound 2, 3-[(4-{5-[(3-chlorophenoxy)(2-chlorophenyl)methyl]-1,2,4-oxadiazol-3-yl}benzyl)amino]propanoic acid]	2.12 µM
Cc1ccc(SC(c2nc(-c3ccc(CNCCC(=O)O)cc3)no2)c2ccccc2Cl)cc1C (centres unmarked) [Compound 5, 3-{[4-(5-{(2-chlorophenyl)[(3,4-dimethylphenyl)thio]methyl}-1,2,4-oxadiazol-3-yI)benzyl]amino}propanoic acid]	0.146 µM
CCCc1ccc(OC(c2cccc(Cl)c2)c2nc(-c3ccc(CNCCC(=O)O)cc3)no2)cc1 (centres unmarked) [Compound 6, 3-[(4-{5-[(3-chlorophenyl)(4-propylphenoxy)methyl]-1,2,4-oxadiazol-3-yI}benzyl)amino]propanoic acid]	1.6 µM
CCc1ccc(OC(c2cccc(Cl)c2)c2nc(-c3ccc(CNCCC(=O)O)cc3)no2)cc1 (centres unmarked) [Compound 7, 3-[(4-{5-[(3-chlorophenyl)(4-ethylphenoxy)methyl]-1,2,4-oxadiazol-3-yI}benzyl)amino]propanoic acid]	1.08 µM
Cc1ccc(OC(c2cccc(Cl)c2)c2nc(-c3ccc(CNCCC(=O)O)cc3)no2)cc1 (centres unmarked) [Compound 8, 3-[(4-{5-[(3-chlorophenyl)(4-methylphenoxy)methyl]-1,2,4-oxadiazol-3-yl}benzyl)amino]propanoic acid]	0.42 µM
COc1ccc(OC(c2nc(-c3ccc(CNCCC(=O)O)cc3)no2)c2ccccc2Cl)cc1C (centres unmarked) [Compound 10, 3-[(4-{5-[(2-chlorophenyl)(4-methoxy-3-methylphenoxy)methyl]-1,2,4-oxadiazol-3-yl}benzyl)amino]propanoic acid]	0.209 µM
Cc1ccc(SC(c2cccc(Cl)c2)c2nc(-c3cc(C)c(OCC(O)CO)c(C)c3)no2)cc1C (centres unmarked) [Compound 11, 3-[4-(5-{(3-chlorophenyl)[(3,4-dimethylphenyl)thio]methyl}-1,2,4-oxadiazol-3-yl)-2,6-dimethylphenoxy]propane-1,2-diol]	0.0299 µM

— patent US8486918B2, “Phenyl oxadiazole derivatives as sphingosine 1-phosphate (S1P) receptor” (Allergan, Inc., priority 2010, dated 2013)
